These results are taken from US20080119513A1, “Sulfonamide Derivative Selectively Inhibiting Mmp-13” (priority 2004, published 2008).

What all share (type): biochemical
The target of one test is T1, MMP-12 (Homo sapiens, UniProt P39900).
T1 construct: In regard to MMP-12, catalytic domain (^100Phe˜^263Gly) was amplified with RT-PCR; His-tag; enterokinase digestion-site
Briefly: Assay for inhibitory activities on MMPs (fluorogenic peptide substrate), MMP-12. The method, then: In regard to MMP-12, catalytic domain (^100Phe˜^263Gly) was amplified with RT-PCR from Human Placenta Total RNA. This was cloned in Escherichia coli expression vector pTrc99AHE inserted with His-tag sequence and enterokinase digestion-site, induced and expressed by IPTG (Isopropyl-β-D-thiogalactopyranoside) and expressed in an insoluble fraction. Isolation of MMP-12 from an insoluble fraction was carried out by dissolving in modifier (6 M urea) by a usual method and purification with metal chelate chromatography (Ni Chelateing Sepharose). And then removing modifier (6 M urea) with dialysis and refolding of the enzyme spontaneously gave activated MMP-12.
(§1) The enzymatic activity on MMPs was analyzed by the method described in “C. Graham Knight, Frances Willenbrock and Gillian Murphy: A novel coumarin-labelled peptide for sensitive continuous assays of the matrix metalloproteinases: FEBS LETT., 296, (1992), 263-266”. The substrate: MOCAc-Pro-Leu-Gly-Leu-A2Pr(DNP)-Ala-Arg-NH2 was purchased from Peptide Institute, Inc., Osaka, Japan. The measurement of the inhibitory activities (IC50) was carried out by the following four methods;
(§2) (A) Reaction with substrate, enzyme (MMPs) and inhibitor
(§3) (B) Reaction with substrate and inhibitor, without enzyme
(§4) (C) Reaction with substrate and enzyme (MMPs), without inhibitor
(§5) (D) Reaction with substrate only
(§6) IC50 values were calculated by using the following formula and each fluorescence values of above four methods (A to D).
(§7) % inhibition={1-(A−B)/(C−D)}×100
(§8) IC50 means the concentration required to inhibit 50% of the enzyme activity.
(§9) The value of inhibitory activity against MMP-2, MMP-8, MMP-9, MMP-12, and MMP-13 measured by above mentioned methods are shown in Table 25 and 26.

For another test, the target named is T2, MMP-8 (Homo sapiens, UniProt P22894).
T2 construct: In regard to MMP-8, catalytic domain (^99Phe˜^262Gly) was amplified with PCR; His-tag; enterokinase digestion-site
T2 sequence (P22894 99-262): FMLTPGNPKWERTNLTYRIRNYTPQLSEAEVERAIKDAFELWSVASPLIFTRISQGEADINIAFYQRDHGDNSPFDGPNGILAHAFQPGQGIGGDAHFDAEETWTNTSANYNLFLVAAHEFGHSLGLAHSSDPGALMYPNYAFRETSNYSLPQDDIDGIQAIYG
The test can be described thus: Assay for inhibitory activities on MMPs (fluorogenic peptide substrate), MMP-8.
From the text: In regard to MMP-8, catalytic domain (^99Phe˜^262Gly) was amplified with PCR using commercial available Human Bone Marrow cDNA. This was cloned in Escherichia coli expression vector pTrc99AHE inserted with His-tag sequence and enterokinase digestion-site, induced and expressed by IPTG (Isopropyl-β-D-thiogalactopyranoside) and expressed in a insoluble fraction (Than F. Ho, M. Walid Qoronfleh, Robert C. Wahl, Trica A. Pulvino, Karen J. Vavra, Joe Falvo, Tracey M. Banks, Patricia G. Brake and Richard B. Ciccarelli: Gene expression, purification and characterization of recombinant human neutrophil collagenase. Gene 146, (1994) 297-301. It was prepared by the method in a slight modification). Isolation of MMP-8 from an insoluble fraction was carried out by dissolving in modifier (6 M urea) by a usual method and purification with metal chelate chromatography. And then removing modifier (6 M urea) with dialysis and refolding of the enzyme spontaneously gave activated MMP-8.
as §1, §2, §3, §4, §5, §6, §7, §8, §9

The target of another test is MMP-9 (Homo sapiens, UniProt P14780). Briefly: Assay for inhibitory activities on MMPs (fluorogenic peptide substrate), MMP-9.
Chain of MMP-9 (P14780 107-707): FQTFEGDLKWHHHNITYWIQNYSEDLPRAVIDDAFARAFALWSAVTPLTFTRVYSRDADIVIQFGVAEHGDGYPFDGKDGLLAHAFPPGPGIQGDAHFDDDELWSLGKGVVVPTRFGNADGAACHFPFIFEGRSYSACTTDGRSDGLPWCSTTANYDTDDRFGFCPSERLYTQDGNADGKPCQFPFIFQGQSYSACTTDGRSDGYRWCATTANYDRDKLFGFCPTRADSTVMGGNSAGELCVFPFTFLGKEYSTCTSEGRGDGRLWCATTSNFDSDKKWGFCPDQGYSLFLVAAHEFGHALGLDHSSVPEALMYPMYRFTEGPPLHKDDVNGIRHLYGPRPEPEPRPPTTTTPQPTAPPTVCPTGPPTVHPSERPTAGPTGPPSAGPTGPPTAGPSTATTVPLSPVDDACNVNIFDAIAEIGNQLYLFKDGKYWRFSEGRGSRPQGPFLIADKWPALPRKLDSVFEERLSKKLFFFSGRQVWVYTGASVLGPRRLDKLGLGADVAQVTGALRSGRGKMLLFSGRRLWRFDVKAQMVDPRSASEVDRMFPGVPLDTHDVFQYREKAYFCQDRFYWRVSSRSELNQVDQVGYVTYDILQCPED
From the text: MMP-9 was isolated and purified by the procedure of Y. Okada et al. (Yasunori Okada, Yukio Gonoji, Katsumi Naka, Katsuro Tomita, Isao Nakanishi, Kazushi Iwata, Kyoko Yamashita, and Taro Hayakawa: Matrix metalloproteinase 9 (92-kDa gelatinase/type IV collagenase) from HT1080 human fibrosarcoma cells. Purification and activation of the precursor and enzymic properties, J. Biol. Chem., 1992, 267, 21712-21719) in combination with other following methods: 1) Yasunori Okada, Tatsuhisa Morodomi, Jan J, Enghild, Ko Suzuki, Atsushi Yasui, Isao Nakanishi, Guy Salvesen and Hideaki Nagase: Matrix metalloproteinase 2 from human rheumatoid synovial fibroblasts. Purification and activation of the precursor and enzymic properties, Eur. J. Biochem., 1990, 194, 721-730; 2) Robin V Ward, Rosalind M Hembry, John J Reynolds and Gillian Murphy: The purification of tissue inhibitor of metalloproteinase-2 from its 72 kDa progelatinase complex. Biochem. J., 1991, 278, 179-187. In detail, human fibrosarcoma ATCC HT1080 cell line was cultured to confluent in Dulbecco's Modified Medium (DMEM) containing 10% fetal-calf serum at 37° C. for 48 hours. Subsequently, the medium of confluent culture was changed to serum-free DMEM medium. To obtain MMP-9, phorbol-12-myristate-13-acetate (TPA) must be added to this serum-free DMEM medium at a concentration of 50 ng/ml. The TPA-treated medium was centrifuged at 3000 rpm for 15 min, and the supernatant was concentrated to 450 ml by a Toyo-Roshi UP-20 apparatus with an ultrafiltration membrane. Then, proMMP-9 in this concentrated solution was purified by using columns of Gelatin-Sepharose and Concanavalin A-Sepharose. The pool containing proMMP-9 was dialyzed, concentrated (Toyo-Roshi UP-20) and applied to columns of Sephacryl S-200 and Green A matrix for the separation from TIMPs. The obtained proMMP-9 fraction was activated by TPCK-Trypsin (Final conc.: 3 μg/501 React Mix.).
as §1, §2, §3, §4, §5, §6, §7, §8, §9

The next test has as its target T3, MMP-2 (Homo sapiens, UniProt P08253).
T3 sequence (P08253 110-660): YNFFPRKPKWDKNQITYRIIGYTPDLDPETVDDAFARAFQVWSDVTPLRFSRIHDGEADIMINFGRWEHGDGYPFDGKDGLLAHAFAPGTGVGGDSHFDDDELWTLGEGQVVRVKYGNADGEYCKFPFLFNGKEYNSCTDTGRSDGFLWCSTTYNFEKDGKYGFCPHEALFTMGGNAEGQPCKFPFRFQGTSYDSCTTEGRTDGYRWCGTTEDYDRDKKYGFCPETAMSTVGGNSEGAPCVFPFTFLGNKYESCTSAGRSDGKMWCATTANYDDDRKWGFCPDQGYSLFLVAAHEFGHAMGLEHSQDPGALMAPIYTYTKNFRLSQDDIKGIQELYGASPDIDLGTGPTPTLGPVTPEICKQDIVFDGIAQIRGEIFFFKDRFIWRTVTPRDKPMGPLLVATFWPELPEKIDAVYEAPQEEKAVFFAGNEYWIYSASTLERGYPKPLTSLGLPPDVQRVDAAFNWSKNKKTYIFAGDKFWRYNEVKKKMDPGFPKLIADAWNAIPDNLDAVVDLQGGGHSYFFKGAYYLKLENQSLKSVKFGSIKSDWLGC
Briefly: Assay for inhibitory activities on MMPs (fluorogenic peptide substrate), MMP-2. The method, then: MMP-2 was purchased from Calbiochem-Novabiochem International, Inc.
as §1, §2, §3, §4, §5, §6, §7, §8, §9

Another test concerns the target T4, MMP-13 (Homo sapiens, UniProt P45452).
T4 construct: catalytic domain (^104Tyr˜^267Gly) was amplified with RT-PCR; His-tag; enterokinase digestion-site
Briefly: Assay for inhibitory activities on MMPs (fluorogenic peptide substrate), MMP-13. The method, then:
In regard to MMP-13, mRNA was prepared from carcinoma cell SW1353 derived from human cartilage stimulate by IL-1 and TNF, and catalytic domain (^[…]) was amplified with RT-PCR. This was cloned in Escherichia coli expression vector […] inserted with His-tag sequence and enterokinase digestion-site, induced and expressed by IPTG (Isopropyl-β-D-thiogalactopyranoside) and expressed in an insoluble fraction. Isolation of MMP-13 from an insoluble fraction was carried out by dissolving in modifier (6 M urea) by a usual method and purification with metal chelate chromatography (Ni […] Sepharose). And then removing modifier (6 M urea) with dialyze and refolding of the enzyme spontaneously gave activated MMP-13. The enzymatic activity on MMPs was analyzed by the method described in “C. Graham Knight, Frances Willenbrock and Gillian Murphy: A novel coumarin-labelled peptide for sensitive continuous assays of the matrix metalloproteinases: FEBS LETT., 296, (1992), 263-266”. The substrate: MOCAc-[…] was purchased from Peptide Institute, Inc., Osaka, Japan. The measurement of the inhibitory activities (IC50) was carried out by the following four methods; (A) Reaction with substrate, enzyme (MMPs) and inhibitor (B) Reaction with substrate and inhibitor, without enzyme (C) Reaction with substrate and enzyme (MMPs), without inhibitor (D) Reaction with substrate only IC50 values were calculated by using the following formula and each fluorescence values of above four methods (A to D). % inhibition={1-(A-B)/(C-D)}×100 IC50 means the concentration required to inhibit 50% of the enzyme activity. The value of inhibitory activity against MMP-2, MMP-8, MMP-9, MMP-12, and MMP-13 measured by above mentioned methods are shown in Table 25 and 26.

Molecules are shown by their SMILES.

As usually defined, the IC50 is the concentration at which inhibition is half-maximal.

T1 sequence (P39900 100-263): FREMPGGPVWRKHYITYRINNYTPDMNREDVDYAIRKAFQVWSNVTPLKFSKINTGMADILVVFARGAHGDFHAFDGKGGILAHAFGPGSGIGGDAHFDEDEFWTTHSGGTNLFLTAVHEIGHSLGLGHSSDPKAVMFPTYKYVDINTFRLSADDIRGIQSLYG

As to `COc1ccc2cc(C#Cc3ccc(-c4ccc(S(=O)(=O)N[C@@H](Cc5ccccc5)C(=O)O)cc4)cc3)ccc2c1` [III-29], the IC50 is above 10000 nM at MMP-12; 5300 nM against MMP-8; above 10000 nM at MMP-9; above 10000 nM against MMP-2; 78.8 nM at MMP-13.

Take `COc1ccc2cc(C#Cc3ccc(-c4ccc(S(=O)(=O)N[C@@H](Cc5c[nH]c6ccccc56)C(=O)O)cc4)cc3)ccc2c1` [III-31]: the 50% inhibitory concentration (IC50) is 901 nM at MMP-12; 4460 nM on MMP-8; above 10000 nM at MMP-9; above 10000 nM on MMP-2; 20.1 nM at MMP-13.

On to `COc1ccc2cc(C#Cc3ccc(-c4ccc(S(=O)(=O)N[C@H](CO)C(=O)O)cc4)cc3)ccc2c1` [III-44], for which the IC50 against MMP-12 is 5290 nM; against MMP-8, above 10000 nM; at MMP-9, above 10000 nM; against MMP-2 it was 5010 nM; against MMP-13, 3.49 nM.

Turning to `COc1ccc2cc(C#Cc3ccc(-c4ccc(S(=O)(=O)N[C@@H](CO)C(=O)O)cc4)cc3)ccc2c1` [III-45], the IC50 on MMP-12 was above 10000 nM; on MMP-8, above 10000 nM; on MMP-9, above 10000 nM; against MMP-2 it was above 10000 nM; on MMP-13, 19.3 nM.

Turning to `COc1ccc2cc(C#Cc3ccc(-c4ccc(S(=O)(=O)NC(Cc5ccc(F)cc5)C(=O)O)cc4)cc3)ccc2c1` (centres unmarked) [III-47], the 50% inhibitory concentration (IC50) against MMP-12 is above 10000 nM; on MMP-8, above 10000 nM; at MMP-9, above 10000 nM; on MMP-2, above 10000 nM; against MMP-13, 143 nM.

Consider `COc1ccc(C[C@H](NS(=O)(=O)c2ccc(-c3ccc(C#Cc4ccc5cc(OC)ccc5c4)cc3)cc2)C(=O)O)cc1` [III-48], for which the half-maximal inhibitory concentration (IC50) was above 10000 nM against MMP-12; above 10000 nM against MMP-8; above 10000 nM at MMP-9; above 10000 nM against MMP-2; 100 nM at MMP-13.

For the molecule `COc1ccc2cc(C#Cc3ccc(-c4ccc(S(=O)(=O)N[C@H](CSC)C(=O)O)cc4)cc3)ccc2c1` [III-49], the half-inhibitory concentration (IC50) on MMP-12 is 118 nM; on MMP-8, 109 nM; at MMP-9 it was above 10000 nM; at MMP-2 it was above 10000 nM; against MMP-13, 50.8 nM.

Consider `COCC(NS(=O)(=O)c1ccc(-c2ccc(C#Cc3ccc4cc(OC)ccc4c3)cc2)cc1)C(=O)O` (centres unmarked) [III-50], for which the IC50 is 125 nM against MMP-12; 243 nM against MMP-8; above 10000 nM at MMP-9; 50.6 nM against MMP-2; 13.8 nM against MMP-13.

Consider `COc1ccc2cc(C#Cc3ccc(-c4ccc(S(=O)(=O)N[C@@H](C(=O)O)c5ccc(O)cc5)cc4)cc3)ccc2c1` [III-51], for which the concentration for half-maximal inhibition (IC50) against MMP-12 is 536 nM; against MMP-8, 508 nM; at MMP-9, above 10000 nM; against MMP-2 it was above 10000 nM; at MMP-13, 128 nM.

With `O=C(Nc1ccc(-c2ccc(S(=O)(=O)N[C@H](Cc3ccccc3)C(=O)O)cc2)cc1)c1ccccc1` [VI-2], the half-maximal inhibitory concentration (IC50) was above 10000 nM against MMP-12; above 10000 nM on MMP-8; above 10000 nM at MMP-9; 371 nM at MMP-2; 73.6 nM against MMP-13.

For `COc1ccc(C(=O)Nc2ccc(-c3ccc(S(=O)(=O)N[C@H](Cc4ccccc4)C(=O)O)cc3)cc2)cc1` [VI-3], the IC50 on MMP-12 is 1100 nM; against MMP-8, above 10000 nM; at MMP-9, above 10000 nM; against MMP-2, 239 nM; at MMP-13, 32.6 nM.

Consider `COc1cccc(C(=O)Nc2ccc(-c3ccc(S(=O)(=O)N[C@H](Cc4ccccc4)C(=O)O)cc3)cc2)c1` [VI-5], for which the IC50 against MMP-12 is 1230 nM; against MMP-8, 623 nM; at MMP-9, above 10000 nM; against MMP-2, 660 nM; at MMP-13, 50.1 nM.

As to `O=C(Nc1ccc(-c2ccc(S(=O)(=O)N[C@H](Cc3ccccc3)C(=O)O)cc2)cc1)c1ccc(F)cc1` [VI-6], the IC50 is above 10000 nM at MMP-12; above 10000 nM on MMP-8; above 10000 nM at MMP-9; 235 nM at MMP-2; 39.4 nM at MMP-13.
